Results: patent publication US20250041189A1, “STEM CELL PROLIFERATION PROMOTER” (SHISEIDO COMPANY, LTD., priority 2021, published 2025)

Key:
epidermal stem cells [1] = assay: Culturing of fresh human skin with agents, fluorescent immunostaining for Ki-67 and MCSP; format: cell-based; settings: fresh human abdominal skin, final concentration 0.01%
Description: Fresh skin samples taken from the abdominal regions of participants (aged 20 to 30) with informed consent were purchased from KAC Co., Ltd. The samples were cultured in medium comprising an equal mixture of 10% FBS-DMEM (Thermo Fisher Scientific K.K., 11885084) and Humedia-KG2 (KURABO Industries Ltd., KK-2150S) with addition of 1-(2-hydroxyethyl)-2-imidazolidinone (“S173”, final concentration: 0.01%), which has an effect of inhibiting both MMP-9 and heparanase, […]”, final concentration: 0.01%), or a combination of 1-(2-hydroxyethyl)-2-imidazolidinone and […]”, final concentration: 0.01%). As a control, culturing was carried out in medium containing an equal amount of DMSO solvent lacking these agents. Medium was exchanged daily, and skin tissue slices were collected on the 2nd day (Day2). Following the AMeX method, fresh human skin was dehydrated and fixed using cold acetone and exchanged with acetone, methyl benzoate and xylene in that order, and then embedded in paraffin. Slices with thicknesses of 3 μm were prepared for tissue staining. Paraffin slices cut to 3 μm thicknesses were deparaffinized with xylene and hydrated using EtOH. Antibodies for Ki-67 (SP6) (Thermo Fisher Scientific K.K., RM-9106-S, rabbit […] monoclonal antibody) and antibodies for MCSP (melanoma-associated chondroitin sulphate proteoglycan) (Millipore, MAB2029, 9.2.27, mouse monoclonal antibody) were used for fluorescent immunostaining.

epidermal stem cells [2] = settings: disclosed in NPL 1 (Iriyama et al., Scientific Reports 2020); cited from earlier work
[3] = Day2, compared to control without addition of agent (Day2 control)

SMILES: O=C1NCCN1CCO [S173, 1-(2-hydroxyethyl)-2-imidazolidinone]
- number of Ki67-positive cells (cell proliferation marker) (epidermal stem cells [1]; [3]): increased
- number of MCSP-positive cells (epidermal basal stem cell marker) (epidermal stem cells [1]; [3]): increased
- number of Ki67+MCSP-positive cells (epidermal stem cells [1]; Day2, compared to the control): increased
- number of stem cells (MCSP-positive) relative to Day0 (epidermal stem cells [1]; after culturing for 2 days, compared to Day0 level): maintained at the level of Day0
- effect on epidermal stem cell counts (epidermal stem cells [2]): maintaining epidermal stem cell counts
